The numbers were not newly measured in PMC5389743 (Investigative Ophthalmology & Visual Science, 2017), which cites them from elsewhere.

The subject of series [1] is normotensive rabbits. Particulars: 0.4% Δ^8-THC submicron emulsion, after 2 hours.
Series [2] concerns α-chymotrypsin–induced rabbit glaucoma model. Particulars: 0.4% Δ^8-THC submicron emulsion, ocular hypertensive rabbits.

On to `CCCCCc1cc(O)c2c(c1)OC(C)(C)[C@@H]1CC=C(C)C[C@@H]21` [Δ^8-THC], for which, in series [1], the “Difference between the IOP with and without treatment” value is reported as 2 mm of Hg. The “Drop of IOP” value in series [2] is reported as 6.5 mm of Hg.
